Tested on: advanced metastatic cancer
Assay: Antitumor activity: tumor response (RECIST 1.1) and progression-free survival
Format: in vivo, human
Protocol: Tumor response was assessed using RECIST 1.1. As for drugs with cytostatic antitumor activity, disease control rate was defined as the sum of stable disease (SD) and objective response rates; SD was considered clinically beneficial. Progression-free survival (PFS) was measured from treatment initiation until disease progression or death and was estimated using the Kaplan–Meier method.

[1] = PAM+ patients without confounding markers, M2698 monotherapy 110 mg, N=2
[2] = PAM+ patients without confounding markers, M2698 monotherapy 160 mg, N=4
[3] = PAM+ patients without confounding markers, M2698 monotherapy 200 mg, N=3
[4] = PAM+ patients without confounding markers, M2698 monotherapy 240 mg, N=16
[5] = PAM+ patients without confounding markers, M2698 monotherapy 320 mg, N=11
[6] = PAM+ patients without confounding markers, M2698 monotherapy 380 mg, N=4
[7] = PAM+ patients without confounding markers, M2698 monotherapy, Total of all dose levels, N=47
[8] = PAM+ patients, M2698 monotherapy 15 mg, N=3
[9] = PAM+ patients, M2698 monotherapy 30 mg, N=2
[10] = PAM+ patients, M2698 monotherapy 60 mg, N=4
[11] = PAM+ patients, M2698 monotherapy 75 mg, N=2
[12] = PAM+ patients, M2698 monotherapy 110 mg, N=3
[13] = PAM+ patients, M2698 monotherapy 160 mg, N=6
[14] = PAM+ patients, M2698 monotherapy 200 mg, N=3
[15] = PAM+ patients, M2698 monotherapy 240 mg, N=16
[16] = PAM+ patients, M2698 monotherapy 320 mg, N=11
[17] = PAM+ patients, M2698 monotherapy 380 mg, N=4
[18] = PAM+ patients, M2698 monotherapy, Total of all dose levels, N=54
[19] = monotherapy, PAM+ with confounding alterations, 1/7

For `NC(=O)c1cccc2c(N[C@H](CN3CCC3)c3ccc(Cl)c(C(F)(F)F)c3)ncnc12` [M2698], the “Response, NE” value [1] was 1 (50.0) n (%), the “Response, PD” value [1] was 0 (0.0) n (%) and the “Response, SD at wk 6” value [1] was 1 (50.0) n (%). The “Response, NE” value [2] was 0 (0.0) n (%), the “Response, PD” value [2] was 2 (50.0) n (%) and the “Response, SD at wk 6” value [2] was 2 (50.0) n (%). The “Median PFS” value [3] was 4.1 months, the “Response, NE” value [3] was 0 (0.0) n (%) and the “Response, PD” value [3] was 1 (33.3) n (%). For the same molecule, the “Response, SD at wk 6” value [3] was 2 (66.7) n (%), the “Median PFS” value [4] was 1.9 months and the “Response, NE” value [4] was 3 (18.8) n (%). For the same molecule, the “Response, PD” value [4] was 8 (50.0) n (%), the “Response, SD at wk 6” value [4] was 5 (31.3) n (%) and the “Median PFS” value [5] was 2.8 months. For the same molecule, the “Response, NE” value [5] was 1 (9.1) n (%), the “Response, PD” value [5] was 5 (45.5) n (%) and the “Response, SD at wk 6” value [5] was 5 (45.5) n (%). The “Median PFS” value [6] was 6.2 months, the “Response, NE” value [6] was 2 (50.0) n (%) and the “Response, PD” value [6] was 0 (0.0) n (%). The “Response, SD at wk 6” value [6] was 2 (50.0) n (%), the “Median PFS” value [7] was 2.8 months and the “Response, NE” value [7] was 7 (14.9) n (%). For the same molecule, the “Response, PD” value [7] was 19 (40.4) n (%), the “Response, SD at wk 6” value [7] was 21 (44.7) n (%) and the Clinical benefit rate (PAM+ patients, monotherapy) was 40.7%. For the same molecule, the “Median PFS” value [8] was 4.1 months, the “Response, NE” value [8] was 0 (0.0) n (%) and the “Response, PD” value [8] was 1 (33.3) n (%). For the same molecule, the “Response, SD at wk 6” value [8] was 2 (66.7) n (%), the “Median PFS” value [9] was 10.3 months and the “Response, NE” value [9] was 0 (0.0) n (%). The “Response, PD” value [9] was 0 (0.0) n (%), the “Response, SD at wk 6” value [9] was 2 (100) n (%) and the “Median PFS” value [10] was 1.4 months. The “Response, NE” value [10] was 1 (25.0) n (%), the “Response, PD” value [10] was 3 (75.0) n (%) and the “Response, SD at wk 6” value [10] was 0 (0.0) n (%). The “Median PFS” value [11] was 2.1 months, the “Response, NE” value [11] was 0 (0.0) n (%) and the “Response, PD” value [11] was 1 (50.0) n (%). The “Response, SD at wk 6” value [11] was 1 (50.0) n (%), the “Median PFS” value [12] was 8.2 months and the “Response, NE” value [12] was 1 (33.3) 1 (33.3) 1 (33.3) n (%). For the same molecule, the “Response, PD” value [12] was 1 (33.3) 1 (33.3) 1 (33.3) n (%), the “Response, SD at wk 6” value [12] was 1 (33.3) 1 (33.3) 1 (33.3) n (%) and the “Median PFS” value [13] was 1.6 months. For the same molecule, the “Response, NE” value [13] was 0 (0.0) n (%), the “Response, PD” value [13] was 4 (66.7) n (%) and the “Response, SD at wk 6” value [13] was 2 (33.3) n (%). For the same molecule, the “Median PFS” value [14] was 4.1 months, the “Response, NE” value [14] was 0 (0.0) n (%) and the “Response, PD” value [14] was 1 (33.3) n (%). For the same molecule, the “Response, SD at wk 6” value [14] was 2 (66.7) n (%), the “Median PFS” value [15] was 1.9 months and the “Response, NE” value [15] was 3 (18.8) n (%). For the same molecule, the “Response, PD” value [15] was 8 (50.0) n (%), the “Response, SD at wk 6” value [15] was 5 (31.3) n (%) and the “Median PFS” value [16] was 2.8 months. For the same molecule, the “Response, NE” value [16] was 1 (9.1) n (%), the “Response, PD” value [16] was 5 (45.5) n (%) and the “Response, SD at wk 6” value [16] was 5 (45.5) n (%). For the same molecule, the “Median PFS” value [17] was 6.2 months, the “Response, NE” value [17] was 2 (50.0) n (%) and the “Response, PD” value [17] was 0 (0.0) n (%). For the same molecule, the “Response, SD at wk 6” value [17] was 2 (50.0) n (%), the “Median PFS” value [18] was 2.4 months and the “Response, NE” value [18] was 8 (14.8) n (%). For the same molecule, the “Response, PD” value [18] was 24 (44.4) n (%), the “Response, SD at wk 6” value [18] was 22 (40.7) n (%) and the “Overall clinical benefit rate at 12 weeks” value (in vivo) was 27.4%. For the same molecule, the “Patients with stable disease at 12 weeks” value (monotherapy cohort) was 27.4%, the “Patients with stable disease” value (monotherapy cohort overall) was 40.3% and the Objective response (monotherapy cohort, RECIST 1.1) was “no objective responses were noted”. The “Median PFS” value (monotherapy overall) was 2.3 months, the “Median PFS” value (monotherapy, PAM+ patients) was 2.4 months and the “Stable disease at 6 weeks” value [19] was 14.3%. The “Stable disease at 12 weeks” value [19] was 14.3%, the “Stable disease at 12 weeks” value (monotherapy, PAM+ without confounding alterations, 14/47) was 29.8% and the “Stable disease at 6 weeks” value (monotherapy, PAM+ without confounding alterations, 21/47) was 44.7%. For the same molecule, the “PFS of the five patients with PFS ≥ 6 months” value (monotherapy, all PAM+ without confounding alterations) was 7.1–16.4 months, the “Median PFS, PAM+ patients with confounding alterations (KRAS, EGFR, AKT2)” value (monotherapy, n = 7) was 1.4 months and the “Median PFS, PAM+ patients without confounding alterations” value (monotherapy, n = 47) was 2.8 months.
